{"source": "patent US20150218212A1", "about": "“FLUORINATED EPOXYKETONE-BASED TETRAPEPTIDE COMPOUNDS AND USES THEREOF AS PROTEASOME INHIBITORS” (FLUORINOV PHARMA INC., priority 2012, published 2015)", "format_in_all_cases": "cell-based, human", "key": {"[1]": {"system": "UACC-257", "assay": "NCI screening panel, UACC-257 (Melanoma)", "method": "(§1) Representative compounds of Formula I were screened using the National Cancer Institute (NCI) screening panel, which consists of a panel of human tumor cell lines, representing leukemia, melanoma, and cancers of the lung, colon, ovary, breast, prostate and renal system.\n(§2) After 24 h, two plates of each cell line are fixed in situ with TCA, to represent a measurement of the cell population for each cell line at the time of drug addition (Tz). Experimental drugs are solubilised in dimethyl sulfoxide at 400-fold the desired final maximum test concentration and stored frozen prior to use. At the time of drug addition, an aliquot of frozen concentrate is thawed and diluted to twice the desired final maximum test concentration with complete medium containing 50 μg/mL gentamicin. Additional four, 10-fold or ½ log serial dilutions are made to provide a total of five drug concentrations plus control. Aliquots of 100 μl of these different drug dilutions are added to the appropriate microtiter wells already containing 100 μl of medium, resulting in the required final drug concentrations.\n(§3) Following drug addition, the plates are incubated for an additional 48 h at 37° C., 5% CO2, 95% air, and 100% relative humidity. For adherent cells, the assay is terminated by the addition of cold TCA (trichloroacetic acid). Cells are fixed in situ by the gentle addition of 50 μl of cold 50% (w/v) TCA (final concentration, 10% TCA) and incubated for 60 minutes at 4° C. The supernatant is discarded, and the plates are washed five times with tap water and air dried. Sulforhodamine B (SRB) solution (100 μl) at 0.4% (w/v) in 1% acetic acid is added to each well, and plates are incubated for 10 minutes at room temperature. After staining, unbound dye is removed by washing five times with 1% acetic acid and the plates are air dried. Bound stain is subsequently solubilised with 10 mM trizma base, and the absorbance is read on an automated plate reader at a wavelength of 515 nm. For suspension cells, the methodology is the same except that the assay is terminated by fixing settled cells at the bottom of the wells by gently adding 50 μl of 80% TCA (final concentration, 16% TCA). Using the seven absorbance measurements [time zero, (Tz), control growth, (C), and test growth in the presence of drug at the five concentration levels (Ti)], the percentage growth is calculated at each of the drug concentrations levels. Percentage growth inhibition is calculated as: [(Ti−Tz)/(C−Tz)]×100 for concentrations for which Ti>/=Tz and [(Ti−Tz)/Tz]×100 for concentrations for which Ti<Tz.\n(§4) Three dose response parameters are calculated for each experimental agent. Growth inhibition of 50% (GI50) is calculated from [(Ti−Tz)/(C−Tz)]×100=50, which is the drug concentration resulting in a 50% reduction in the net protein increase (as measured by SRB staining) in control cells during the drug incubation. The drug concentration resulting in total growth inhibition (TGI) is calculated from Ti=Tz. The LC50 (concentration of drug resulting in a 50% reduction in the measured protein at the end of the drug treatment as compared to that at the beginning) indicating a net loss of cells following treatment is calculated from [(Ti−Tz)/Tz]×100=−50. Values are calculated for each of these three parameters if the level of activity is reached. However, if the effect is not reached or is exceeded, the value for that parameter is expressed as greater or less than the maximum or minimum concentration tested."}, "[2]": {"system": "OVCAR-8", "assay": "NCI screening panel, OVCAR-8 (Ovarian Cancer)", "method": "as §1, §2, §3, §4"}, "[3]": {"system": "SK-MEL-2", "assay": "NCI screening panel, SK-MEL-2 (Melanoma)", "method": "as §1, §2, §3, §4"}, "[4]": {"system": "UACC-62", "assay": "NCI screening panel, UACC-62 (Melanoma)", "method": "as §1, §2, §3, §4"}, "[5]": {"system": "RXF 393", "assay": "NCI screening panel, RXF 393 (Renal Cancer)", "method": "as §1, §2, §3, §4"}, "[6]": {"system": "NCI/ADR-RES", "assay": "NCI screening panel, NCI/ADR-RES (Ovarian Cancer)", "method": "as §1, §2, §3, §4"}, "[7]": {"system": "SW-620", "assay": "NCI screening panel, SW-620 (Colon Cancer)", "method": "as §1, §2, §3, §4"}, "[8]": {"system": "HCC-2998", "assay": "NCI screening panel, HCC-2998 (Colon Cancer)", "method": "as §1, §2, §3, §4"}, "[9]": {"system": "COLO 205", "assay": "NCI screening panel, COLO 205 (Colon Cancer)", "method": "as §1, §2, §3, §4"}, "[10]": {"system": "786-0", "assay": "NCI screening panel, 786-0 (Renal Cancer)", "method": "as §1, §2, §3, §4"}, "[11]": {"system": "OVCAR-3", "assay": "NCI screening panel, OVCAR-3 (Ovarian Cancer)", "method": "as §1, §2, §3, §4"}, "[12]": {"system": "NCI-H226", "assay": "NCI screening panel, NCI-H226 (Non-Small Cell Lung Cancer)", "method": "as §1, §2, §3, §4"}, "[13]": {"system": "SK-MEL-5", "assay": "NCI screening panel, SK-MEL-5 (Melanoma)", "method": "as §1, §2, §3, §4"}}}
{"smiles": "CC(C)C[C@H](NC(=O)[C@H](COC(F)F)NC(=O)CN1CCOCC1)C(=O)N[C@@H](Cc1ccccc1)C(=O)N[C@@H](Cc1ccccc1)C(=O)[C@@]1(C)CO1", "note": "[Example 3, (2S)-N-[(1S)-1-benzyl-2-[[(1S)-1-benzyl-2-[(2R)-2-methyloxiran-2-yl]-2-oxo-ethyl]amino]-2-oxo-ethyl]-2-[[(2S)-3-(difluoromethoxy)-2-[(2-morpholinoacetyl)-amino]propanoyl]amino]-4-methyl-pentan-amide]", "values": [{"measurement": "Log10GI50", "setting": "[1]", "value": "−7.23"}, {"measurement": "Log10LC50", "setting": "[1]", "value": "−4.53"}, {"measurement": "Log10TGI50", "setting": "[1]", "value": "−6.40"}, {"measurement": "Log10GI50", "setting": "[2]", "value": "−7.25"}, {"measurement": "Log10LC50", "setting": "[2]", "value": ">−4.00"}, {"measurement": "Log10TGI50", "setting": "[2]", "value": "−6.29"}, {"measurement": "Log10GI50", "setting": "[3]", "value": "−7.92"}, {"measurement": "Log10LC50", "setting": "[3]", "value": ">−4.00"}, {"measurement": "Log10TGI50", "setting": "[3]", "value": "−7.19"}, {"measurement": "Log10GI50", "setting": "[4]", "value": "−7.93"}, {"measurement": "Log10LC50", "setting": "[4]", "value": "−6.13"}, {"measurement": "Log10TGI50", "setting": "[4]", "value": "−7.17"}, {"measurement": "Log10GI50", "setting": "[5]", "value": "−7.64"}, {"measurement": "Log10LC50", "setting": "[5]", "value": "−6.58"}, {"measurement": "Log10TGI50", "setting": "[5]", "value": "−7.18"}, {"measurement": "Log10GI50", "setting": "[6]", "value": "−5.86"}, {"measurement": "Log10LC50", "setting": "[6]", "value": ">−4.00"}, {"measurement": "Log10TGI50", "setting": "[6]", "value": ">−4.00"}, {"measurement": "Log10GI50", "setting": "[7]", "value": "<−8.00"}, {"measurement": "Log10LC50", "setting": "[7]", "value": "−4.27"}, {"measurement": "Log10TGI50", "setting": "[7]", "value": "−6.63"}, {"measurement": "Log10GI50", "setting": "[8]", "value": "−7.78"}, {"measurement": "Log10LC50", "setting": "[8]", "value": "−7.18"}, {"measurement": "Log10TGI50", "setting": "[8]", "value": "−7.48"}, {"measurement": "Log10GI50", "setting": "[9]", "value": "−7.73"}, {"measurement": "Log10LC50", "setting": "[9]", "value": "−4.53"}, {"measurement": "Log10TGI50", "setting": "[9]", "value": "−6.48"}, {"measurement": "Log10GI50", "setting": "[10]", "value": "−7.22"}, {"measurement": "Log10LC50", "setting": "[10]", "value": "−4.14"}, {"measurement": "Log10TGI50", "setting": "[10]", "value": "−5.77"}, {"measurement": "Log10GI50", "setting": "[11]", "value": "<−8.00"}, {"measurement": "Log10LC50", "setting": "[11]", "value": "−6.36"}, {"measurement": "Log10TGI50", "setting": "[11]", "value": "−7.25"}, {"measurement": "Log10GI50", "setting": "[12]", "value": "<−8.00"}, {"measurement": "Log10LC50", "setting": "[12]", "value": "−7.24"}, {"measurement": "Log10TGI50", "setting": "[12]", "value": "−7.92"}, {"measurement": "Log10GI50", "setting": "[13]", "value": "−7.71"}, {"measurement": "Log10LC50", "setting": "[13]", "value": "−6.43"}, {"measurement": "Log10TGI50", "setting": "[13]", "value": "−7.19"}]}
